Data: PubChem BioAssay (NCI)
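GI50 = concentration required for 50% inhibition of growth. TGI marks complete inhibition of growth.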

Columns and labels:
Assay in all cases: growth of human tumour cells (NCI), 384-well format
NCI-H23 lung = test system: NCI-H23 lung
NCI-H322M lung = test system: NCI-H322M lung
MDA-MB-231 breast = test system: MDA-MB-231 breast
K-562 leukemia = test system: K-562 leukemia
NCI-H460 NSCLC = test system: NCI-H460 NSCLC
SK-MEL-28 melanoma = test system: SK-MEL-28 melanoma
PC-3 prostate = test system: PC-3 prostate
SF-295 CNS = test system: SF-295 CNS
HCT-15 colon = test system: HCT-15 colon
SF-539 CNS = test system: SF-539 CNS
DU-145 prostate = test system: DU-145 prostate
OVCAR-5 ovarian = test system: OVCAR-5 ovarian
CAKI-1 renal = test system: CAKI-1 renal
NCI-H226 lung = test system: NCI-H226 lung
EKVX NSCLC = test system: EKVX NSCLC
RXF 393 renal = test system: RXF 393 renal
SF-268 CNS = test system: SF-268 CNS
SK-OV-3 ovarian = test system: SK-OV-3 ovarian
HOP-92 NSCLC = test system: HOP-92 NSCLC
M14 melanoma = test system: M14 melanoma
IGROV1 ovarian = test system: IGROV1 ovarian
NCI/ADR-RES ovarian = test system: NCI/ADR-RES ovarian
UACC-62 melanoma = test system: UACC-62 melanoma
COLO 205 colon = test system: COLO 205 colon
CCRF-CEM leukemia = test system: CCRF-CEM leukemia
SNB-75 CNS = test system: SNB-75 CNS
MCF7 breast = test system: MCF7 breast
MOLT-4 leukemia = test system: MOLT-4 leukemia
HL-60(TB) leukemia = test system: HL-60(TB) leukemia
MDA-MB-468 breast = test system: MDA-MB-468 breast
MALME-3M melanoma = test system: MALME-3M melanoma
HT29 colon = test system: HT29 colon
HOP-62 NSCLC = test system: HOP-62 NSCLC
KM12 colon = test system: KM12 colon
UACC-257 melanoma = test system: UACC-257 melanoma
A498 renal = test system: A498 renal
SW-620 colon = test system: SW-620 colon
SK-MEL-2 melanoma = test system: SK-MEL-2 melanoma
TK-10 renal = test system: TK-10 renal
RPMI-8226 leukemia = test system: RPMI-8226 leukemia
A549 NSCLC = test system: A549 NSCLC
786-0 renal = test system: 786-0 renal
OVCAR-3 ovarian = test system: OVCAR-3 ovarian
NCI-H522 lung = test system: NCI-H522 lung
LOX IMVI melanoma = test system: LOX IMVI melanoma
MDA-MB-435 melanoma = test system: MDA-MB-435 melanoma
HS 578T breast = test system: HS 578T breast
SNB-19 CNS = test system: SNB-19 CNS
OVCAR-4 ovarian = test system: OVCAR-4 ovarian
HCT-116 colon = test system: HCT-116 colon
HCC-2998 colon = test system: HCC-2998 colon
SK-MEL-5 melanoma = test system: SK-MEL-5 melanoma
OVCAR-8 ovarian = test system: OVCAR-8 ovarian
SR leukemia = test system: SR leukemia
U251 glioblastoma = test system: U251 glioblastoma
SN12C renal = test system: SN12C renal
ACHN renal = test system: ACHN renal
UO-31 renal = test system: UO-31 renal
T-47D breast = test system: T-47D breast
BT-549 breast = test system: BT-549 breast

For `Cc1cc2cc(Oc3ccnc(Nc4cccc(CS(=O)(=O)NCCN(C)C)c4)n3)ccc2[nH]1`, the GI50 (NCI-H23 lung) was 2.51 µM, the TGI (NCI-H23 lung) was 8.7 µM and the GI50 (NCI-H322M lung) was 10.7 µM. It also gave a TGI (NCI-H322M lung) of 23.2 µM, a GI50 (MDA-MB-231 breast) of 6.73 µM and a TGI (MDA-MB-231 breast) of 19.1 µM. The GI50 (K-562 leukemia) was 1.27 µM, the TGI (K-562 leukemia) was 2.59 µM and the GI50 (NCI-H460 NSCLC) was 2.62 µM. It also gave a TGI (NCI-H460 NSCLC) of 6.54 µM, a GI50 (SK-MEL-28 melanoma) of 4.58 µM and a TGI (SK-MEL-28 melanoma) of 12.4 µM. The GI50 (PC-3 prostate) was 4.19 µM, the TGI (PC-3 prostate) was 14.9 µM and the GI50 (SF-295 CNS) was 8.49 µM. It also gave a TGI (SF-295 CNS) of 21.1 µM, a GI50 (HCT-15 colon) of 5.47 µM and a TGI (HCT-15 colon) of 16.7 µM. For the same compound, the GI50 (SF-539 CNS) was 2.04 µM, the TGI (SF-539 CNS) was 6.29 µM and the GI50 (DU-145 prostate) was 8.4 µM. The TGI (DU-145 prostate) was 20.8 µM, the GI50 (OVCAR-5 ovarian) was 3.81 µM and the TGI (OVCAR-5 ovarian) was 13.1 µM. For the same compound, the GI50 (CAKI-1 renal) was 3.61 µM, the TGI (CAKI-1 renal) was 13.9 µM and the GI50 (NCI-H226 lung) was 1.95 µM. For the same compound, the TGI (NCI-H226 lung) was 12.5 µM, the GI50 (EKVX NSCLC) was 5.04 µM and the TGI (EKVX NSCLC) was 16.7 µM. It also gave a GI50 (RXF 393 renal) of 1.83 µM, a TGI (RXF 393 renal) of 4.32 µM and a GI50 (SF-268 CNS) of 3.93 µM. For the same compound, the TGI (SF-268 CNS) was 14.1 µM, the GI50 (SK-OV-3 ovarian) was 8.13 µM and the TGI (SK-OV-3 ovarian) was 20.8 µM. For the same compound, the GI50 (HOP-92 NSCLC) was 2.51 µM, the TGI (HOP-92 NSCLC) was 7.51 µM and the GI50 (M14 melanoma) was 3.38 µM. For the same compound, the TGI (M14 melanoma) was 7.81 µM, the GI50 (IGROV1 ovarian) was 3.05 µM and the TGI (IGROV1 ovarian) was 9.84 µM. The GI50 (NCI/ADR-RES ovarian) was 15.3 µM, the TGI (NCI/ADR-RES ovarian) was 28.8 µM and the GI50 (UACC-62 melanoma) was 2.78 µM. For the same compound, the TGI (UACC-62 melanoma) was 7.45 µM, the GI50 (COLO 205 colon) was 4.4 µM and the TGI (COLO 205 colon) was 10.2 µM. The GI50 (CCRF-CEM leukemia) was 1.96 µM, the TGI (CCRF-CEM leukemia) was 3.65 µM and the GI50 (SNB-75 CNS) was 1.55 µM. The TGI (SNB-75 CNS) was 3.81 µM, the GI50 (MCF7 breast) was 3.48 µM and the TGI (MCF7 breast) was 12.7 µM. The GI50 (MOLT-4 leukemia) was 1.8 µM, the TGI (MOLT-4 leukemia) was 3.24 µM and the GI50 (HL-60(TB) leukemia) was 2.45 µM. The TGI (HL-60(TB) leukemia) was 5.63 µM, the GI50 (MDA-MB-468 breast) was 3.19 µM and the TGI (MDA-MB-468 breast) was 7.85 µM. It also gave a GI50 (MALME-3M melanoma) of 1.84 µM, a TGI (MALME-3M melanoma) of 3.34 µM and a GI50 (HT29 colon) of 2.4 µM. The TGI (HT29 colon) was 6.03 µM, the GI50 (HOP-62 NSCLC) was 7.38 µM and the TGI (HOP-62 NSCLC) was 20.2 µM. For the same compound, the GI50 (KM12 colon) was 0.736 µM, the TGI (KM12 colon) was 12.2 µM and the GI50 (UACC-257 melanoma) was 1.84 µM. For the same compound, the TGI (UACC-257 melanoma) was 3.26 µM, the GI50 (A498 renal) was 3.08 µM and the TGI (A498 renal) was 11.1 µM. The GI50 (SW-620 colon) was 11.1 µM, the TGI (SW-620 colon) was 23.3 µM and the GI50 (SK-MEL-2 melanoma) was 2.64 µM. For the same compound, the TGI (SK-MEL-2 melanoma) was 6.28 µM, the GI50 (TK-10 renal) was 8.76 µM and the TGI (TK-10 renal) was 21.2 µM. It also gave a GI50 (RPMI-8226 leukemia) of 3.29 µM, a TGI (RPMI-8226 leukemia) of 11.4 µM and a GI50 (A549 NSCLC) of 7.13 µM. For the same compound, the TGI (A549 NSCLC) was 19.4 µM, the GI50 ([…]-0 renal) was 3.36 µM and the TGI (786-0 renal) was 11.9 µM. For the same compound, the GI50 (OVCAR-3 ovarian) was 6.2 µM, the TGI (OVCAR-3 ovarian) was 18 µM and the GI50 (NCI-H522 lung) was 2.47 µM. For the same compound, the TGI (NCI-H522 lung) was 7.78 µM, the GI50 (LOX IMVI melanoma) was 1.93 µM and the TGI (LOX IMVI melanoma) was 4.2 µM. It also gave a GI50 (MDA-MB-435 melanoma) of 7.5 µM, a TGI (MDA-MB-435 melanoma) of 19.6 µM and a GI50 (HS 578T breast) of 1.69 µM. It also gave a TGI (HS 578T breast) of 5.72 µM, a GI50 (SNB-19 CNS) of 8.83 µM and a TGI (SNB-19 CNS) of 21.2 µM. For the same compound, the GI50 (OVCAR-4 ovarian) was 12 µM, the TGI (OVCAR-4 ovarian) was 24.4 µM and the GI50 (HCT-116 colon) was 3.29 µM. For the same compound, the TGI (HCT-116 colon) was 11.8 µM, the GI50 (HCC-2998 colon) was 2.02 µM and the TGI (HCC-2998 colon) was 3.98 µM. It also gave a GI50 (SK-MEL-5 melanoma) of 1.74 µM, a TGI (SK-MEL-5 melanoma) of 3.16 µM and a GI50 (OVCAR-8 ovarian) of 9.99 µM. For the same compound, the TGI (OVCAR-8 ovarian) was 22.1 µM, the GI50 (SR leukemia) was 1.38 µM and the TGI (SR leukemia) was 2.69 µM. It also gave a GI50 (U251 glioblastoma) of 3.56 µM, a TGI (U251 glioblastoma) of 14.5 µM and a GI50 (SN12C renal) of 3.66 µM. It also gave a TGI (SN12C renal) of 13.2 µM, a GI50 (ACHN renal) of 6.45 µM and a TGI (ACHN renal) of 19 µM. It also gave a GI50 (UO-31 renal) of 10.6 µM, a TGI (UO-31 renal) of 22.5 µM and a GI50 (T-47D breast) of 7.08 µM. For the same compound, the TGI (T-47D breast) was 19.2 µM, the GI50 (BT-549 breast) was 2.19 µM and the TGI (BT-549 breast) was 7.26 µM.
